The values below come from US20230203482A1, “Methods of Rescuing Stop Codons via Genetic Reassignment with ACE-tRNA” (THE WISTAR INSTITUTE OF ANATOMY AND BIOLOGY, priority 2017, published 2023).

One data set relates to CFTR W1282X. Description: CFTR W1282X rescue, western blot in HEK cells. It is filed as cell-based, human. The conditions noted are these: CFTR W1282X cDNA co-expressed in HEK cells, antibody M3A7. Here is the method:
To assess is these novel tRNA could rescue CFTR channels harboring nonsense codons, they were co-expressed in mammalian HEK cells with a CFTR W1282X cDNA plasmid. The cellular preparations were analyzed by standard biochemical approaches via Western blot assessment of CFTR protein. […] Specifically, the “B” and “C” bands represent the full-length and fully mature, post-translationally proceeded CFTR protein at the cell surface, respectively. […] FIG. 9.
(§1) For expression in mammalian cells, the cDNA for the coding region and 200 base-pair of the 3′ untranslated region (UTR) of human CFTR was ligated into pcDNA3.1(+) (Promega, USA) using the KpnI and XbaI restriction enzymes. The G542tga and W1282tga mutations were introduced using QuickChange XL II (Stratagene, USA). For expression in Xenopus laevis oocytes, the cDNA for the coding region and 140 base-pair of the 5′ and 244 base-pair 3′ UTR of human CFTR was ligated into pGEM-HE (Promega, USA). Bothe the G542tga and W1282tga mutations were introduced using QuickChange XL II. The cDNA encoding the E. coli histidinol dehydrogenase was codon optimized for Mus musculus and synthesized (BioBasic Inc, Canada) with a c-terminal 8xHis-Strep-tag for protein purification from mammalian cells. The synthesized cDNA was ligated into pcDNA3.1(+) using EcoRI and XhoI restriction sites. […]
On the technique in general: Immunoblotting shows a protein as a band on a membrane.

The test system of data set [1] is histidinol dehydrogenase (HDH) N94-TGA. Nature of the data set: Mass spectrometry of suppressed histidinol dehydrogenase (cognate amino acid encoding). The format is cell-based, E. coli. The conditions noted are these: MS/MS of tryptic fragment.
Excerpt: as §1, with “sites. The nonsense mutations tag, taa and tga were introduced using QuickChange XL II.” for “sites.”

For “Trpchr17.trna39: top performing tryptophan ACE-tRNA UGA suppressor, SEQ ID NO: 48”, in the data set on CFTR W1282X, the “rescue of full-length CFTR protein (B and C bands)” value was “robust populations of ‘B’ and ‘C’ CFTR immunopositive (antibody MA37) bands”. The “mass modification of Asn at HDH N94” value in data set [1] was “+72 Da”.

B1: Glychr19.trna2: top performing glycine ACE-tRNA UGA suppressor, SEQ ID NO: 53 (nucleic acid)
chain: GCGTTGGTGGTATAGTGGTTAGCATAGCTGCCTTCAAAGCAGTTGACCCGGGTTCGATTCCCGGCCAACGCA
modifications: chemistry not fully specified
Consider B1, for which the “rescue of full-length CFTR protein (B and C bands)” value with CFTR W1282X is “robust populations of ‘B’ and ‘C’ CFTR immunopositive (antibody MA37) bands”. In addition, the “mass modification of Asn at HDH N94” value in data set [1] was −57 Da.
